Laboratory results as given in the NIST ThermoML archive (doi:10.1016/j.jct.2015.12.005).
Where “and” joins values, the source holds several entries; their conditions need not be identical. Equal entries are not always repeated. Numbers after ± are expanded uncertainties.

What was measured:
[1] = for mass density: Vibrating tube method; for vapor or sublimation pressure: Twin ebulliometer; for Triple point temperature: Adiabatic calorimetry
[2] = Molar enthalpy of transition or fusion; details: Adiabatic calorimetry

Structure (SMILES): c1ccc2c(c1)CCC2 [indane]
- molar entropy ([1]; 5 K, Crystal 2, Vacuum adiabatic calorimetry): 0.09977 ± 0.017 J/K/mol
- molar entropy ([1]; 10 K, Crystal 2, Vacuum adiabatic calorimetry): 0.873 ± 0.025 J/K/mol
- molar entropy ([1]; 20 K, Crystal 2, Vacuum adiabatic calorimetry): 5.878 ± 0.067 J/K/mol
- molar entropy ([1]; 30 K, Crystal 2, Vacuum adiabatic calorimetry): 13.6 ± 0.12 J/K/mol
- molar entropy ([1]; 40 K, Crystal 2, Vacuum adiabatic calorimetry): 22.12 ± 0.1 J/K/mol
- molar entropy ([1]; 50 K, Crystal 2, Vacuum adiabatic calorimetry): 30.71 ± 0.12 J/K/mol
- molar entropy ([1]; 60 K, Crystal 2, Vacuum adiabatic calorimetry): 39.24 ± 0.14 J/K/mol
- molar entropy ([1]; 62 K, Crystal 2, Vacuum adiabatic calorimetry): 40.96 ± 0.14 J/K/mol
- molar entropy ([1]; 64 K, Crystal 2, Vacuum adiabatic calorimetry): 42.68 ± 0.15 J/K/mol
- molar entropy ([1]; 66 K, Crystal 2, Vacuum adiabatic calorimetry): 44.42 ± 0.15 J/K/mol
- molar entropy ([1]; 68 K, Crystal 2, Vacuum adiabatic calorimetry): 46.19 ± 0.16 J/K/mol
- molar entropy ([1]; 70 K, Crystal 2, Vacuum adiabatic calorimetry): 48 ± 0.17 J/K/mol
- molar entropy ([1]; 72 K, Crystal 2, Vacuum adiabatic calorimetry): 49.85 ± 0.17 J/K/mol
- molar entropy ([1]; 73.83 K, Crystal 1, Vacuum adiabatic calorimetry): 53.65 ± 0.17 J/K/mol
- molar entropy ([1]; 73.83 K, Crystal 2, Vacuum adiabatic calorimetry): 51.59 ± 0.17 J/K/mol
- molar entropy ([1]; 74 K, Crystal 1, Vacuum adiabatic calorimetry): 53.79 ± 0.17 J/K/mol
- molar entropy ([1]; 76 K, Crystal 1, Vacuum adiabatic calorimetry): 55.33 ± 0.18 J/K/mol
- molar entropy ([1]; 78 K, Crystal 1, Vacuum adiabatic calorimetry): 56.85 ± 0.18 J/K/mol
- molar entropy ([1]; 80 K, Crystal 1, Vacuum adiabatic calorimetry): 58.36 ± 0.19 J/K/mol
- molar entropy ([1]; 90 K, Crystal 1, Vacuum adiabatic calorimetry): 65.61 ± 0.31 J/K/mol
- molar entropy ([1]; 100 K, Crystal 1, Vacuum adiabatic calorimetry): 72.48 ± 0.32 J/K/mol
- molar entropy ([1]; 120 K, Crystal 1, Vacuum adiabatic calorimetry): 85.36 ± 0.33 J/K/mol
- molar entropy ([1]; 140 K, Crystal 1, Vacuum adiabatic calorimetry): 97.4 ± 0.35 J/K/mol
- molar entropy ([1]; 160 K, Crystal 1, Vacuum adiabatic calorimetry): 108.88 ± 0.37 J/K/mol
- molar entropy ([1]; 180 K, Crystal 1, Vacuum adiabatic calorimetry): 120 ± 0.38 J/K/mol
- molar entropy ([1]; 200 K, Crystal 1, Vacuum adiabatic calorimetry): 130.94 ± 0.4 J/K/mol
- molar entropy ([1]; 220 K, Crystal 1, Vacuum adiabatic calorimetry): 141.81 ± 0.42 J/K/mol
- molar entropy ([1]; 221.79 K, Crystal 1, Vacuum adiabatic calorimetry): 142.78 ± 0.42 J/K/mol
- molar entropy ([1]; 221.79 K, Liquid, Vacuum adiabatic calorimetry): 181.35 ± 0.49 J/K/mol
- molar entropy ([1]; 230 K, Liquid, Vacuum adiabatic calorimetry): 187.35 ± 0.5 J/K/mol
- molar entropy ([1]; 240 K, Liquid, Vacuum adiabatic calorimetry): 194.49 ± 0.51 J/K/mol
- molar entropy ([1]; 250 K, Liquid, Vacuum adiabatic calorimetry): 201.46 ± 0.52 J/K/mol
- molar entropy ([1]; 260 K, Liquid, Vacuum adiabatic calorimetry): 208.28 ± 0.53 J/K/mol
- molar entropy ([1]; 270 K, Liquid, Vacuum adiabatic calorimetry): 214.98 ± 0.55 J/K/mol
- molar entropy ([1]; 280 K, Liquid, Vacuum adiabatic calorimetry): 221.57 ± 0.56 J/K/mol
- molar entropy ([1]; 290 K, Liquid, Vacuum adiabatic calorimetry): 228.06 ± 0.57 J/K/mol
- molar entropy ([1]; 298.15 K, Liquid, Vacuum adiabatic calorimetry): 233.26 ± 0.57 J/K/mol
- molar entropy ([1]; 300 K, Liquid, Vacuum adiabatic calorimetry): 234.44 ± 0.58 J/K/mol
- molar entropy ([1]; 310 K, Liquid, Vacuum adiabatic calorimetry): 240.74 ± 0.59 J/K/mol
- molar entropy ([1]; 320 K, Liquid, Vacuum adiabatic calorimetry): 246.96 ± 0.6 J/K/mol
- mass density ([1]; 323.15 K, Liquid): 937.2 ± 1.9 kg/m3
- molar entropy ([1]; 330 K, Liquid, Vacuum adiabatic calorimetry): 253.13 ± 0.62 J/K/mol
- molar entropy ([1]; 333.38 K, Liquid, Vacuum adiabatic calorimetry): 255.19 ± 0.62 J/K/mol
- vapor or sublimation pressure ([1]; 338.12 K, Liquid): 2 ± 0.0078 kPa
- molar entropy ([1]; 340 K, Liquid, Vacuum adiabatic calorimetry): 259.22 ± 0.62 J/K/mol
- vapor or sublimation pressure ([1]; 344.12 K, Liquid): 2.666 ± 0.0079 kPa
- mass density ([1]; 348.15 K, Liquid): 915.6 ± 1.8 kg/m3
- molar entropy ([1]; 350 K, Liquid, Vacuum adiabatic calorimetry): 265.26 ± 0.63 J/K/mol
- vapor or sublimation pressure ([1]; 353.03 K, Liquid): 4 ± 0.0079 kPa
- vapor or sublimation pressure ([1]; 359.69 K, Liquid): 5.333 ± 0.008 kPa
- molar entropy ([1]; 360 K, Liquid, Vacuum adiabatic calorimetry): 271.24 ± 0.65 J/K/mol
- vapor or sublimation pressure ([1]; 369.61 K, Liquid): 7.999 ± 0.0082 kPa
- molar entropy ([1]; 370 K, Liquid, Vacuum adiabatic calorimetry): 277.19 ± 0.66 J/K/mol
- mass density ([1]; 373.15 K, Liquid): 893.7 ± 1.8 kg/m3
- vapor or sublimation pressure ([1]; 377.06 K, Liquid): 10.67 ± 0.008 kPa
- molar entropy ([1]; 380 K, Liquid, Vacuum adiabatic calorimetry): 283.07 ± 0.67 J/K/mol
- vapor or sublimation pressure ([1]; 383.1 K, Liquid): 13.33 ± 0.009 kPa
- vapor or sublimation pressure ([1]; 389.37 K, Liquid): 16.66 ± 0.009 kPa
- molar entropy ([1]; 390 K, Liquid, Vacuum adiabatic calorimetry): 288.92 ± 0.67 J/K/mol
- vapor or sublimation pressure ([1]; 394.58 K, Liquid): 19.93 ± 0.009 kPa
- mass density ([1]; 398.15 K, Liquid): 871.2 ± 1.7 kg/m3
- molar entropy ([1]; 400 K, Liquid, Vacuum adiabatic calorimetry): 294.73 ± 0.69 J/K/mol
- vapor or sublimation pressure ([1]; 401.44 K, Liquid): 25.02 ± 0.01 kPa and 25.02 ± 0.011 kPa
- vapor or sublimation pressure ([1]; 408.36 K, Liquid): 31.17 ± 0.011 kPa
- molar entropy ([1]; 410 K, Liquid, Vacuum adiabatic calorimetry): 300.49 ± 0.7 J/K/mol
- vapor or sublimation pressure ([1]; 415.33 K, Liquid): 38.56 ± 0.013 kPa
- molar entropy ([1]; 420 K, Liquid, Vacuum adiabatic calorimetry): 306.23 ± 0.71 J/K/mol
- vapor or sublimation pressure ([1]; 422.35 K, Liquid): 47.37 ± 0.014 kPa
- mass density ([1]; 423.15 K, Liquid): 848.5 ± 1.7 kg/m3
- vapor or sublimation pressure ([1]; 429.42 K, Liquid): 57.81 ± 0.016 kPa
- molar entropy ([1]; 430 K, Liquid, Vacuum adiabatic calorimetry): 311.92 ± 0.72 J/K/mol
- vapor or sublimation pressure ([1]; 436.54 K, Liquid): 70.11 ± 0.019 kPa
- molar entropy ([1]; 440 K, Liquid, Vacuum adiabatic calorimetry): 317.58 ± 0.72 J/K/mol
- vapor or sublimation pressure ([1]; 443.71 K, Liquid): 84.53 ± 0.021 kPa
- mass density ([1]; 448.15 K, Liquid): 824.8 ± 1.7 kg/m3
- molar entropy ([1]; 450 K, Liquid, Small sample (50 mg) DSC): 323.22 ± 7.5 J/K/mol
- vapor or sublimation pressure ([1]; 450.93 K, Liquid): 101.32 ± 0.03 kPa
- vapor or sublimation pressure ([1]; 458.2 K, Liquid): 120.78 ± 0.03 kPa
- molar entropy ([1]; 460 K, Liquid, Small sample (50 mg) DSC): 328.83 ± 7.6 J/K/mol
- vapor or sublimation pressure ([1]; 465.53 K, Liquid): 143.23 ± 0.03 kPa
- molar entropy ([1]; 470 K, Liquid, Small sample (50 mg) DSC): 334.43 ± 7.8 J/K/mol
- vapor or sublimation pressure ([1]; 472.9 K, Liquid): 169 ± 0.03 kPa
- mass density ([1]; 473.15 K, Liquid): 799.8 ± 1.6 kg/m3
- molar entropy ([1]; 480 K, Liquid, Small sample (50 mg) DSC): 340.01 ± 7.9 J/K/mol
- vapor or sublimation pressure ([1]; 480.33 K, Liquid): 198.46 ± 0.04 kPa
- vapor or sublimation pressure ([1]; 487.8 K, Liquid): 231.99 ± 0.05 kPa
- molar entropy ([1]; 490 K, Liquid, Small sample (50 mg) DSC): 345.57 ± 8 J/K/mol
- vapor or sublimation pressure ([1]; 495.33 K, Liquid): 269.98 ± 0.05 kPa
- mass density ([1]; 498.15 K, Liquid): 774 ± 1.6 kg/m3
- molar entropy ([1]; 500 K, Liquid, Small sample (50 mg) DSC): 351.1 ± 8.2 J/K/mol
- molar entropy ([1]; 510 K, Liquid, Small sample (50 mg) DSC): 356.62 ± 8.3 J/K/mol
- molar entropy ([1]; 520 K, Liquid, Small sample (50 mg) DSC): 362.11 ± 8.4 J/K/mol
- mass density ([1]; 523.15 K, Liquid): 745.8 ± 1.5 kg/m3
- molar entropy ([1]; 530 K, Liquid, Small sample (50 mg) DSC): 367.58 ± 8.5 J/K/mol
- molar entropy ([1]; 540 K, Liquid, Small sample (50 mg) DSC): 373.04 ± 8.7 J/K/mol
- molar entropy ([1]; 550 K, Liquid, Small sample (50 mg) DSC): 378.48 ± 8.8 J/K/mol
- molar entropy ([1]; 560 K, Liquid, Small sample (50 mg) DSC): 383.9 ± 8.9 J/K/mol
- molar entropy ([1]; 570 K, Liquid, Small sample (50 mg) DSC): 389.31 ± 9 J/K/mol
- molar entropy ([1]; 580 K, Liquid, Small sample (50 mg) DSC): 394.7 ± 9.2 J/K/mol
- molar entropy ([1]; 590 K, Liquid, Small sample (50 mg) DSC): 400.08 ± 9.3 J/K/mol
- molar entropy ([1]; 600 K, Liquid, Small sample (50 mg) DSC): 405.43 ± 9.4 J/K/mol
- Triple point temperature ([1]; Crystal 1): 221.79 ± 0.039 K
- Triple point temperature ([1]; Crystal 2): 73.83 ± 0.04 K
- Molar enthalpy of transition or fusion ([2]; Crystal 1): 8.554 ± 0.011 kJ/mol
- Molar enthalpy of transition or fusion ([2]; Crystal 2): 0.152 ± 0.0018 kJ/mol
